Measured values: ChEMBL document CHEMBL1909294, “Translating clinical findings into knowledge in drug safety evaluation--drug induced liver injury prediction system (DILIps)” (PLoS Comput Biol, 2011)

What was measured:
Hepatotoxicity [1] = tested on: Hepatotoxicity;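 for HepSE bilirubinemia: bilirubinemia hepatic side effect score drawn from the DILIps training data, a prediction system for drug-induced liver injury; call rule not given here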;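 for HepSE cholecystitis: Cholecystitis-related hepatic side effect score drawn from the DILIps (drug-induced liver injury prediction) training data set; call rule not given here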;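 for HepSE cholelithiasis: hepatic side effect score for cholelithiasis, drawn from the DILIps training data for predicting drug-induced liver injury; call rule not given here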;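 for HepSE cirrhosis: cirrhosis hepatic side effect score taken from the DILIps (drug-induced liver injury prediction) training set; call rule not given here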;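 for HepSE elevated liver function tests: hepatic side effect score for raised liver function tests, as recorded in the DILIps training set used for predicting drug-induced liver injury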; for HepSE hepatic failure: call rule not given here;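 for HepSE hepatomegaly: hepatic side effect score for hepatomegaly, taken from the training set of the DILIps drug-induced liver injury prediction system; call rule not given here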
Hepatotoxicity [2] = tested on: Hepatotoxicity; remark: listed apart in the source;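 for HepSE bilirubinemia: bilirubinemia hepatic side effect score drawn from the DILIps training data, a prediction system for drug-induced liver injury; call rule not given here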;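 for HepSE cholecystitis: Cholecystitis-related hepatic side effect score drawn from the DILIps (drug-induced liver injury prediction) training data set; call rule not given here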;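 for HepSE cholelithiasis: hepatic side effect score for cholelithiasis, drawn from the DILIps training data for predicting drug-induced liver injury; call rule not given here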;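 for HepSE cirrhosis: cirrhosis hepatic side effect score taken from the DILIps (drug-induced liver injury prediction) training set; call rule not given here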;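 for HepSE elevated liver function tests: hepatic side effect score for raised liver function tests, as recorded in the DILIps training set used for predicting drug-induced liver injury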; for HepSE hepatic failure: call rule not given here
Hepatotoxicity [3] = tested on: Hepatotoxicity; remark: listed apart in the source;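 for HepSE bilirubinemia: bilirubinemia hepatic side effect score drawn from the DILIps training data, a prediction system for drug-induced liver injury; call rule not given here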;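 for HepSE cholecystitis: Cholecystitis-related hepatic side effect score drawn from the DILIps (drug-induced liver injury prediction) training data set; call rule not given here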;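 for HepSE cholelithiasis: hepatic side effect score for cholelithiasis, drawn from the DILIps training data for predicting drug-induced liver injury; call rule not given here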;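 for HepSE cirrhosis: cirrhosis hepatic side effect score taken from the DILIps (drug-induced liver injury prediction) training set; call rule not given here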;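 for HepSE elevated liver function tests: hepatic side effect score for raised liver function tests, as recorded in the DILIps training set used for predicting drug-induced liver injury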; for HepSE hepatic failure: call rule not given here
Hepatotoxicity [4] = tested on: Hepatotoxicity; remark: listed apart in the source;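 for HepSE bilirubinemia: bilirubinemia hepatic side effect score drawn from the DILIps training data, a prediction system for drug-induced liver injury; call rule not given here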;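 for HepSE cholecystitis: Cholecystitis-related hepatic side effect score drawn from the DILIps (drug-induced liver injury prediction) training data set; call rule not given here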;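 for HepSE cholelithiasis: hepatic side effect score for cholelithiasis, drawn from the DILIps training data for predicting drug-induced liver injury; call rule not given here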;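 for HepSE cirrhosis: cirrhosis hepatic side effect score taken from the DILIps (drug-induced liver injury prediction) training set; call rule not given here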;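 for HepSE elevated liver function tests: hepatic side effect score for raised liver function tests, as recorded in the DILIps training set used for predicting drug-induced liver injury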; for HepSE hepatic failure: call rule not given here
Hepatotoxicity [5] = tested on: Hepatotoxicity; remark: listed apart in the source; for HepSE hepatic failure: call rule not given here
Hepatotoxicity [6] = tested on: Hepatotoxicity; remark: listed apart in the source; for HepSE hepatic failure: call rule not given here
Hepatotoxicity [7] = tested on: Hepatotoxicity; remark: listed apart in the source
Hepatotoxicity [8] = tested on: Hepatotoxicity; remark: listed apart in the source
Hepatotoxicity [9] = tested on: Hepatotoxicity; remark: listed apart in the source
Hepatotoxicity [10] = tested on: Hepatotoxicity; remark: listed apart in the source
Hepatotoxicity [11] = tested on: Hepatotoxicity; remark: listed apart in the source
Hepatotoxicity [12] = tested on: Hepatotoxicity; remark: listed apart in the source
Hepatotoxicity [13] = tested on: Hepatotoxicity; remark: listed apart in the source
Hepatotoxicity [14] = tested on: Hepatotoxicity; remark: listed apart in the source

## CC1=C(C(=O)O)N2C(=O)[C@@H](NC(=O)[C@H](N)C3=CCC=CC3)[C@H]2SC1 [CEPHRADINE]
Hepatotoxicity [1]
  HepSE_bilirubinemia: 0
Hepatotoxicity [2]
  HepSE_cholecystitis: 0
Hepatotoxicity [3]
  HepSE_cholelithiasis: 0
Hepatotoxicity [4]
  HepSE_cirrhosis: 0
Hepatotoxicity [5]
  HepSE_elevated liver function tests: 0
Hepatotoxicity [6]
  HepSE_hepatic failure: 0
Hepatotoxicity [7]
  HepSE_hepatic necrosis: 0
Hepatotoxicity [8]
  HepSE_hepatitis: 0
Hepatotoxicity [9]
  HepSE_hepatomegaly: 0
Hepatotoxicity [10]
  HepSE_jaundice: 0
Hepatotoxicity [11]
  HepSE_liver disease: 0
Hepatotoxicity [12]
  HepSE_liver fatty: 0
Hepatotoxicity [13]
  HepSE_liver function tests abnormal: 0
Hepatotoxicity [14]
  HepSE_Combined Scores: 0

## COCc1c(C(C)C)nc(C(C)C)c(/C=C/[C@@H](O)C[C@@H](O)CC(=O)O)c1-c1ccc(F)cc1 [CERIVASTATIN]
Hepatotoxicity [1]
  HepSE_bilirubinemia: 0
Hepatotoxicity [2]
  HepSE_cholecystitis: 0
Hepatotoxicity [3]
  HepSE_cholelithiasis: 0
Hepatotoxicity [4]
  HepSE_cirrhosis: 1
Hepatotoxicity [5]
  HepSE_elevated liver function tests: 0
Hepatotoxicity [6]
  HepSE_hepatic failure: 0
Hepatotoxicity [7]
  HepSE_hepatic necrosis: 1
Hepatotoxicity [8]
  HepSE_hepatitis: 1
Hepatotoxicity [9]
  HepSE_hepatomegaly: 0
Hepatotoxicity [10]
  HepSE_jaundice: 1
Hepatotoxicity [11]
  HepSE_liver disease: 0
Hepatotoxicity [12]
  HepSE_liver fatty: 0
Hepatotoxicity [13]
  HepSE_liver function tests abnormal: 0
Hepatotoxicity [14]
  HepSE_Combined Scores: 4

## O=C(O)CCCc1ccc(N(CCCl)CCCl)cc1 [CHLORAMBUCIL]
Hepatotoxicity [1]
  HepSE_bilirubinemia: 0
Hepatotoxicity [2]
  HepSE_cholecystitis: 0
Hepatotoxicity [3]
  HepSE_cholelithiasis: 0
Hepatotoxicity [4]
  HepSE_cirrhosis: 0
Hepatotoxicity [5]
  HepSE_elevated liver function tests: 0
Hepatotoxicity [6]
  HepSE_hepatic failure: 0
Hepatotoxicity [7]
  HepSE_hepatic necrosis: 0
Hepatotoxicity [8]
  HepSE_hepatitis: 0
Hepatotoxicity [9]
  HepSE_hepatomegaly: 0
Hepatotoxicity [10]
  HepSE_jaundice: 1
Hepatotoxicity [11]
  HepSE_liver disease: 0
Hepatotoxicity [12]
  HepSE_liver fatty: 0
Hepatotoxicity [13]
  HepSE_liver function tests abnormal: 0
Hepatotoxicity [14]
  HepSE_Combined Scores: 1

## O=C(N[C@H](CO)[C@H](O)c1ccc([N+](=O)[O-])cc1)C(Cl)Cl [CHLORAMPHENICOL]
Hepatotoxicity [1]
  HepSE_bilirubinemia: 0
Hepatotoxicity [2]
  HepSE_cholecystitis: 0
Hepatotoxicity [3]
  HepSE_cholelithiasis: 0
Hepatotoxicity [4]
  HepSE_cirrhosis: 0
Hepatotoxicity [5]
  HepSE_elevated liver function tests: 0
Hepatotoxicity [6]
  HepSE_hepatic failure: 0
Hepatotoxicity [7]
  HepSE_hepatic necrosis: 0
Hepatotoxicity [8]
  HepSE_hepatitis: 0
Hepatotoxicity [9]
  HepSE_hepatomegaly: 0
Hepatotoxicity [10]
  HepSE_jaundice: 0
Hepatotoxicity [11]
  HepSE_liver disease: 0
Hepatotoxicity [12]
  HepSE_liver fatty: 0
Hepatotoxicity [13]
  HepSE_liver function tests abnormal: 0
Hepatotoxicity [14]
  HepSE_Combined Scores: 0

## CNC1=Nc2ccc(Cl)cc2C(c2ccccc2)=[N+]([O-])C1 [CHLORDIAZEPOXIDE]
Hepatotoxicity [1]
  HepSE_bilirubinemia: 0
Hepatotoxicity [2]
  HepSE_cholecystitis: 0
Hepatotoxicity [3]
  HepSE_cholelithiasis: 0
Hepatotoxicity [4]
  HepSE_cirrhosis: 0
Hepatotoxicity [5]
  HepSE_elevated liver function tests: 0
Hepatotoxicity [6]
  HepSE_hepatic failure: 0
Hepatotoxicity [7]
  HepSE_hepatic necrosis: 0
Hepatotoxicity [8]
  HepSE_hepatitis: 0
Hepatotoxicity [9]
  HepSE_hepatomegaly: 0
Hepatotoxicity [10]
  HepSE_jaundice: 1
Hepatotoxicity [11]
  HepSE_liver disease: 0
Hepatotoxicity [12]
  HepSE_liver fatty: 0
Hepatotoxicity [13]
  HepSE_liver function tests abnormal: 0
Hepatotoxicity [14]
  HepSE_Combined Scores: 1

## [H]/N=C(\N/C(=N/[H])NCCCCCCNC(=N)NC(=N)Nc1ccc(Cl)cc1)Nc1ccc(Cl)cc1 [CHLORHEXIDINE]
Hepatotoxicity [1]
  HepSE_bilirubinemia: 0
Hepatotoxicity [2]
  HepSE_cholecystitis: 0
Hepatotoxicity [3]
  HepSE_cholelithiasis: 0
Hepatotoxicity [4]
  HepSE_cirrhosis: 0
Hepatotoxicity [5]
  HepSE_elevated liver function tests: 0
Hepatotoxicity [6]
  HepSE_hepatic failure: 0
Hepatotoxicity [7]
  HepSE_hepatic necrosis: 0
Hepatotoxicity [8]
  HepSE_hepatitis: 0
Hepatotoxicity [9]
  HepSE_hepatomegaly: 0
Hepatotoxicity [10]
  HepSE_jaundice: 0
Hepatotoxicity [11]
  HepSE_liver disease: 0
Hepatotoxicity [12]
  HepSE_liver fatty: 0
Hepatotoxicity [13]
  HepSE_liver function tests abnormal: 0
Hepatotoxicity [14]
  HepSE_Combined Scores: 0

## CCN(CC)CCOC(=O)c1ccc(N)cc1Cl [CHLOROPROCAINE]
Hepatotoxicity [1]
  HepSE_bilirubinemia: 0
Hepatotoxicity [2]
  HepSE_cholecystitis: 0
Hepatotoxicity [3]
  HepSE_cholelithiasis: 0
Hepatotoxicity [4]
  HepSE_cirrhosis: 0
Hepatotoxicity [5]
  HepSE_elevated liver function tests: 0
Hepatotoxicity [6]
  HepSE_hepatic failure: 0
Hepatotoxicity [7]
  HepSE_hepatic necrosis: 0
Hepatotoxicity [8]
  HepSE_hepatitis: 0
Hepatotoxicity [9]
  HepSE_hepatomegaly: 0
Hepatotoxicity [10]
  HepSE_jaundice: 0
Hepatotoxicity [11]
  HepSE_liver disease: 0
Hepatotoxicity [12]
  HepSE_liver fatty: 0
Hepatotoxicity [13]
  HepSE_liver function tests abnormal: 0
Hepatotoxicity [14]
  HepSE_Combined Scores: 0

## CCN(CC)CCCC(C)Nc1ccnc2cc(Cl)ccc12 (configuration not stated) [CHLOROQUINE]
Hepatotoxicity [1]
  HepSE_bilirubinemia: 0
Hepatotoxicity [2]
  HepSE_cholecystitis: 0
Hepatotoxicity [3]
  HepSE_cholelithiasis: 0
Hepatotoxicity [4]
  HepSE_cirrhosis: 0
Hepatotoxicity [5]
  HepSE_elevated liver function tests: 0
Hepatotoxicity [6]
  HepSE_hepatic failure: 0
Hepatotoxicity [7]
  HepSE_hepatic necrosis: 0
Hepatotoxicity [8]
  HepSE_hepatitis: 0
Hepatotoxicity [9]
  HepSE_hepatomegaly: 0
Hepatotoxicity [10]
  HepSE_jaundice: 0
Hepatotoxicity [11]
  HepSE_liver disease: 0
Hepatotoxicity [12]
  HepSE_liver fatty: 0
Hepatotoxicity [13]
  HepSE_liver function tests abnormal: 0
Hepatotoxicity [14]
  HepSE_Combined Scores: 0

## NS(=O)(=O)c1cc2c(cc1Cl)N=CNS2(=O)=O [CHLOROTHIAZIDE]
Hepatotoxicity [1]
  HepSE_bilirubinemia: 0
Hepatotoxicity [2]
  HepSE_cholecystitis: 0
Hepatotoxicity [3]
  HepSE_cholelithiasis: 0
Hepatotoxicity [4]
  HepSE_cirrhosis: 0
Hepatotoxicity [5]
  HepSE_elevated liver function tests: 0
Hepatotoxicity [6]
  HepSE_hepatic failure: 0
Hepatotoxicity [7]
  HepSE_hepatic necrosis: 0
Hepatotoxicity [8]
  HepSE_hepatitis: 0
Hepatotoxicity [9]
  HepSE_hepatomegaly: 0
Hepatotoxicity [10]
  HepSE_jaundice: 1
Hepatotoxicity [11]
  HepSE_liver disease: 0
Hepatotoxicity [12]
  HepSE_liver fatty: 0
Hepatotoxicity [13]
  HepSE_liver function tests abnormal: 0
Hepatotoxicity [14]
  HepSE_Combined Scores: 1

## CN(C)CCC(c1ccc(Cl)cc1)c1ccccn1 (configuration not stated) [CHLORPHENIRAMINE]
Hepatotoxicity [1]
  HepSE_bilirubinemia: 0
Hepatotoxicity [2]
  HepSE_cholecystitis: 0
Hepatotoxicity [3]
  HepSE_cholelithiasis: 0
Hepatotoxicity [4]
  HepSE_cirrhosis: 0
Hepatotoxicity [5]
  HepSE_elevated liver function tests: 0
Hepatotoxicity [6]
  HepSE_hepatic failure: 0
Hepatotoxicity [7]
  HepSE_hepatic necrosis: 0
Hepatotoxicity [8]
  HepSE_hepatitis: 0
Hepatotoxicity [9]
  HepSE_hepatomegaly: 0
Hepatotoxicity [10]
  HepSE_jaundice: 0
Hepatotoxicity [11]
  HepSE_liver disease: 0
Hepatotoxicity [12]
  HepSE_liver fatty: 0
Hepatotoxicity [13]
  HepSE_liver function tests abnormal: 0
Hepatotoxicity [14]
  HepSE_Combined Scores: 0

## CN(C)CCCN1c2ccccc2Sc2ccc(Cl)cc21 [CHLORPROMAZINE]
Hepatotoxicity [1]
  HepSE_bilirubinemia: 0
Hepatotoxicity [2]
  HepSE_cholecystitis: 0
Hepatotoxicity [3]
  HepSE_cholelithiasis: 0
Hepatotoxicity [4]
  HepSE_cirrhosis: 1
Hepatotoxicity [5]
  HepSE_elevated liver function tests: 0
Hepatotoxicity [6]
  HepSE_hepatic failure: 0
Hepatotoxicity [7]
  HepSE_hepatic necrosis: 0
Hepatotoxicity [8]
  HepSE_hepatitis: 0
Hepatotoxicity [9]
  HepSE_hepatomegaly: 0
Hepatotoxicity [10]
  HepSE_jaundice: 1
Hepatotoxicity [11]
  HepSE_liver disease: 1
Hepatotoxicity [12]
  HepSE_liver fatty: 0
Hepatotoxicity [13]
  HepSE_liver function tests abnormal: 0
Hepatotoxicity [14]
  HepSE_Combined Scores: 3

## CCCNC(=O)NS(=O)(=O)c1ccc(Cl)cc1 [CHLORPROPAMIDE]
Hepatotoxicity [1]
  HepSE_bilirubinemia: 0
Hepatotoxicity [2]
  HepSE_cholecystitis: 0
Hepatotoxicity [3]
  HepSE_cholelithiasis: 0
Hepatotoxicity [4]
  HepSE_cirrhosis: 0
Hepatotoxicity [5]
  HepSE_elevated liver function tests: 0
Hepatotoxicity [6]
  HepSE_hepatic failure: 0
Hepatotoxicity [7]
  HepSE_hepatic necrosis: 0
Hepatotoxicity [8]
  HepSE_hepatitis: 0
Hepatotoxicity [9]
  HepSE_hepatomegaly: 0
Hepatotoxicity [10]
  HepSE_jaundice: 1
Hepatotoxicity [11]
  HepSE_liver disease: 0
Hepatotoxicity [12]
  HepSE_liver fatty: 0
Hepatotoxicity [13]
  HepSE_liver function tests abnormal: 0
Hepatotoxicity [14]
  HepSE_Combined Scores: 1

## NS(=O)(=O)c1cc(C2(O)NC(=O)c3ccccc32)ccc1Cl (configuration not stated) [CHLORTHALIDONE]
Hepatotoxicity [1]
  HepSE_bilirubinemia: 0
Hepatotoxicity [2]
  HepSE_cholecystitis: 0
Hepatotoxicity [3]
  HepSE_cholelithiasis: 0
Hepatotoxicity [4]
  HepSE_cirrhosis: 0
Hepatotoxicity [5]
  HepSE_elevated liver function tests: 0
Hepatotoxicity [6]
  HepSE_hepatic failure: 0
Hepatotoxicity [7]
  HepSE_hepatic necrosis: 0
Hepatotoxicity [8]
  HepSE_hepatitis: 0
Hepatotoxicity [9]
  HepSE_hepatomegaly: 0
Hepatotoxicity [10]
  HepSE_jaundice: 1
Hepatotoxicity [11]
  HepSE_liver disease: 0
Hepatotoxicity [12]
  HepSE_liver fatty: 0
Hepatotoxicity [13]
  HepSE_liver function tests abnormal: 0
Hepatotoxicity [14]
  HepSE_Combined Scores: 1
